Source: DBAASP
≈ marks a conversion by molar mass, not a printed value. Where “and” joins values, the source holds several entries; their conditions need not be identical. Equal values may be shown once. Each block holds one compound with its values, some of them ahead of it.

Assays:
Test in all cases: ≥ marks a high value that may be exact or a test limit, other limits are often not marked, values filed in µg/mL are converted to µM
[1] = system: Escherichia coli ATCC 25922
Fusarium oxysporum = system: Fusarium oxysporum
Rhizoctonia solani = system: Rhizoctonia solani
[2] = system: Staphylococcus aureus ATCC 25923
[3] = system: Colletotrichum graminicola
[4] = system: Klebsiella pneumoniae KK3 9904
[5] = system: Staphylococcus aureus NCTC 8325
[6] = system: Staphylococcus epidermidis RP62A
[7] = system: Pseudomonas aeruginosa ATCC 27853
[8] = system: Proteus mirabilis ATCC 25933
[9] = system: Candida albicans ATCC 90028
[10] = system: Enterobacter cloacae HNTCC 53001
[11] = system: Enterococcus faecalis ATCC 29212
[12] = system: Bacillus subtilis DSM 357
[13] = system: Escherichia coli DH5alpha
Escherichia coli LWF+ = system: Escherichia coli LWF+
Bacillus subtilis L170 = system: Bacillus subtilis L170
[14] = system: Burkholderia cepacia J2540
Escherichia coli JM109 = system: Escherichia coli JM109
[15] = system: Escherichia coli BL21(DE3)
[16] = system: Pseudomonas putida GPp104
Cupriavidus necator H16 = system: Cupriavidus necator H16
[17] = system: Staphylococcus aureus ATCC BAA-1717
[18] = system: Escherichia coli DSM 1103
[19] = system: Staphylococcus aureus ATCC 25904
[20] = system: Klebsiella pneumoniae ATCC 27736
[21] = system: Staphylococcus epidermidis DSM 1798
[22] = system: Listeria monocytogenes F4244
[23] = system: Pseudomonas aeruginosa ATCC 47085
[24] = system: Listeria monocytogenes ATCC 19111
[25] = system: Listeria monocytogenes ATCC 19112
[26] = system: Staphylococcus aureus DSM 1104
[27] = system: Escherichia coli ATCC BAA-1025
[28] = system: Listeria monocytogenes ATCC 19114
[29] = system: Pseudomonas aeruginosa DSM 1117
[30] = system: Enterococcus faecalis JCM 5803T
[31] = system: Latilactobacillus sakei subsp. sakei JCM 1157T
[32] = system: Listeria innocua ATCC 33090T
[33] = system: Lactiplantibacillus plantarum ATCC 14917

SMILES: CC(C)[C@H](NC(=O)[C@@H]1CCCN1C(=O)[C@@H](N)Cc1ccccc1)C(=O)N[C@H](C(=O)N[C@@H](Cc1c[nH]c2ccccc12)C(=O)N1CCC[C@H]1C(=O)N[C@H](C(=O)N[C@@H](CCCCN)C(=O)N[C@@H](Cc1c[nH]c2ccccc12)C(=O)N[C@@H](Cc1c[nH]c2ccccc12)C(=O)N[C@@H](CCCCN)C(=O)NCC(N)=O)[C@@H](C)O)[C@@H](C)O [FPVTWPTKWWKG]
- MIC [1]: > 125 µM and 163 µM
- MIC (Fusarium oxysporum): ≥ 163 µM
- MIC (Rhizoctonia solani): ≥ 41.8 µM
- MIC [2]: > 125 µM and 163 µM
- MIC [3]: ≥ 163 µM

SMILES: CC(C)C[C@H](NC(=O)[C@H](C)NC(=O)[C@H](CC(C)C)NC(=O)[C@H](CCCCN)NC(=O)[C@H](Cc1c[nH]c2ccccc12)NC(=O)[C@H](C)NC(=O)[C@H](CCCCN)NC(=O)[C@H](CC(C)C)NC(=O)[C@H](C)NC(=O)[C@H](CC(C)C)NC(=O)[C@H](CCCCN)NC(=O)[C@H](CC(C)C)NC(=O)[C@H](C)NC(=O)[C@H](CC(C)C)NC(=O)[C@@H](N)CCCCN)C(=O)N[C@@H](CCCCN)C(=O)N[C@@H](C)C(=O)N[C@@H](C)C(N)=O [KLALKLALKAWKLALKAA]
- MIC [12]: 1.6 µM (≈ 3.12 µg/mL)
- MIC [13]: 5.2 µM (≈ 10.1 µg/mL)
- MIC (Escherichia coli LWF+): 10 µM (≈ 19.5 µg/mL)
- MIC (Bacillus subtilis L170): 1.6 µM (≈ 3.12 µg/mL)

SMILES: CC[C@H](C)[C@H](NC(=O)[C@H](CCCCN)NC(=O)[C@H](CCCCN)NC(=O)[C@H](Cc1ccccc1)NC(=O)[C@H](CC(C)C)NC(=O)[C@H](CCCCN)NC(=O)[C@H](Cc1c[nH]c2ccccc12)NC(=O)[C@@H](N)CCCCN)C(=O)N[C@@H](Cc1ccccc1)C(=O)N[C@@H](CCCCN)C(=O)N[C@@H](CCCN=C(N)N)C(=O)N[C@H](C(=O)N[C@H](C(=O)N[C@@H](CCC(N)=O)C(=O)N[C@@H](CCCN=C(N)N)C(=O)N[C@H](C(=O)N[C@@H](CCCCN)C(=O)N[C@@H](CC(=O)O)C(=O)N[C@@H](Cc1ccccc1)C(=O)N[C@@H](CC(C)C)C(=O)N[C@@H](CCCN=C(N)N)C(=O)O)[C@@H](C)CC)C(C)C)[C@@H](C)CC [KWKLFKKIFKRIVQRIKDFLR]
- MIC [14]: 11.2 µM (≈ 31.3 µg/mL)

SMILES: CC[C@H](C)[C@H](NC(=O)[C@H](Cc1ccc(O)cc1)NC(=O)[C@@H](NC(=O)[C@@H]1CCCN1C(=O)[C@H](CCCN=C(N)N)NC(=O)[C@H](CC(N)=O)NC(=O)[C@H](CC(C)C)NC(=O)[C@@H](N)CCCN=C(N)N)C(C)C)C(=O)N1CCC[C@H]1C(=O)N[C@@H](CCC(N)=O)C(=O)N1CCC[C@H]1C(=O)N[C@@H](CCCN=C(N)N)C(=O)N1CCC[C@H]1C(=O)N1CCC[C@H]1C(=O)N[C@@H](Cc1cnc[nH]1)C(=O)N1CCC[C@H]1C(=O)N[C@@H](CCCN=C(N)N)C(=O)N[C@@H](CC(C)C)C(=O)O [RLNRPVYIPQPRPPHPRL]
- MIC (Escherichia coli JM109): 10 µM (≈ 22.1 µg/mL)
- MIC [15]: 1.25 µM (≈ 2.76 µg/mL)
- MIC [16]: 12.5 µM (≈ 27.6 µg/mL)
- MIC (Cupriavidus necator H16): ≥ 50 µM

SMILES: CC[C@H](C)[C@H](NC(=O)[C@H](CCCCN)NC(=O)[C@@H](NC(=O)[C@H](CCC(N)=O)NC(=O)[C@@H](N)CCCNC(=N)N)[C@@H](C)CC)C(=O)N[C@@H](Cc1c[nH]c2ccccc12)C(=O)N[C@@H](Cc1ccccc1)C(=O)N[C@@H](CCC(N)=O)C(=O)N[C@@H](CC(N)=O)C(=O)N[C@@H](CCCNC(=N)N)C(=O)N[C@@H](CCCNC(=N)N)C(=O)N[C@@H](CCSC)C(=O)N[C@@H](CCCCN)C(=O)N[C@@H](Cc1c[nH]c2ccccc12)C(=O)N[C@@H](CCCCN)C(=O)N[C@@H](CCCCN)C(=O)O [RQIKIWFQNRRMKWKK]
- MIC [17]: ≥ 445 µM
- MIC [18]: ≥ 51 µM
- MIC [19]: ≥ 111 µM
- MIC [20]: ≥ 445 µM
- MIC [21]: 13 µM (≈ 29.2 µg/mL)
- MIC [22]: ≥ 128 µM
- MIC [23]: ≥ 55.6 µM
- MIC [24]: ≥ 32 µM
- MIC [25]: ≥ 64 µM
- MIC [26]: ≥ 51 µM
- MIC [27]: 27.8 µM (≈ 62.5 µg/mL)
- MIC [28]: ≥ 64 µM
- MIC [29]: ≥ 51 µM

Now from value to compound, other results behind:

- MIC [1]: 5 µM (≈ 13.6 µg/mL)
- MIC [4]: 5 µM (≈ 13.6 µg/mL)
- MIC [5]: 20 µM (≈ 54.2 µg/mL)
- MIC [6]: 10 µM (≈ 27.1 µg/mL)
- MIC [7]: 5 µM (≈ 13.6 µg/mL)
- MIC [8]: ≥ 80 µM
- MIC [9]: ≥ 80 µM
- MIC [10]: 2.5 µM (≈ 6.78 µg/mL)
- MIC [11]: > 80 µM
SMILES: CC[C@H](C)[C@H](NC(=O)CNC(=O)[C@H](CCCCN)NC(=O)[C@H](Cc1ccccc1)NC(=O)[C@@H](NC(=O)[C@H](CCCCN)NC(=O)[C@H](CCCCN)NC(=O)[C@H](CC(C)C)NC(=O)[C@H](C)NC(=O)[C@H](CCCCN)NC(=O)[C@H](CC(C)C)NC(=O)CN)C(C)C)C(=O)N[C@@H](Cc1cnc[nH]1)C(=O)N[C@@H](CCCCN)C(=O)N[C@@H](C)C(=O)N[C@H](C(=O)N[C@@H](CCCCN)C(=O)N[C@@H](CC(C)C)C(=O)N[C@H](C(=O)N[C@@H](CC(N)=O)C(=O)N[C@@H](CCCCN)C(=O)N[C@@H](Cc1cnc[nH]1)C(=O)N[C@H](C(=O)N[C@@H](CCC(N)=O)C(=O)O)C(C)C)[C@@H](C)CC)[C@@H](C)CC [GLKALKKVFKGIHKAIKLINKHVQ]

- MIC [30]: 0.3 µM (≈ 0.853 µg/mL)
- MIC [31]: 0.3 µM (≈ 0.853 µg/mL)
- MIC [32]: 0.59 µM (≈ 1.68 µg/mL)
SMILES: CC[C@H](C)[C@H](NC(=O)CNC(=O)CNC(=O)[C@@H]1CCCN1C(=O)[C@@H](N)[C@@H](C)O)C(=O)N[C@@H](CC(=O)O)C(=O)N[C@@H](Cc1ccccc1)C(=O)N[C@H](C(=O)N[C@@H](CO)C(=O)NCC(=O)NCC(=O)N1CCC[C@H]1C(=O)N[C@@H](Cc1cnc[nH]1)C(=O)N[C@H](C(=O)N[C@@H](C)C(=O)N[C@@H](CCC(N)=O)C(=O)N[C@@H](CC(=O)O)C(=O)N[C@H](C(=O)N[C@@H](CC(C)C)C(=O)N[C@@H](CC(N)=O)C(=O)N[C@@H](C)C(=O)N[C@H](C(=O)N[C@@H](CCCCN)C(=O)N[C@@H](CC(N)=O)C(=O)N[C@@H](Cc1ccccc1)C(=O)N[C@@H](Cc1ccccc1)C(=O)N[C@@H](CCCCN)C(=O)O)[C@@H](C)CC)C(C)C)C(C)C)[C@@H](C)CC [TPGGIDFISGGPHVAQDVLNAIKNFFK]
- MIC [33]: 1.2 µM (≈ 3.41 µg/mL)
